From article PMC10824102, “Identification of small molecule inhibitors of G3BP-driven stress granule formation” (The Journal of Cell Biology, 2024)

How the values were obtained:
Format in all cases: cell-based
[1] = test system: stress granule formation in U2OS cells stably expressing G3BP1-GFP; experiment: Preincubation, arsenite-induced stress granule formation, live cell imaging in U2OS; details: for reduction of total stress granule area / reduction of stress granule formation compared with inactive enantiomer: 20 min pretreatment; for reduction of total stress granule area / stress granule formation: 500 μM NaAsO2; for reduction of stress granule formation compared with inactive enantiomer: 250 μM NaAsO2; for stress granule formation: any tested dose (5, 20, 50 μM)
Description: For preincubation of compounds, U2OS or HeLa cells stably expressing G3BP1-GFP or CRISPR-modified cells expressing TDP-43-GFP/G3BP1-GFP were seeded into eight-well Lab-Tek chambered cover glass (Nunc). […] This solution was vortexed for 5 s, added to the cells at 250 μl per well, and left to incubate on the microscope for 20 min. Conditions were maintained at 37°C and 5% CO2 using a Bold Line Cage Incubator (Okolab) and an objective heater (Bioptechs). During this incubation time, 5 xy fields were stored per condition, with each field having ∼20–30 cells within it. After the 20-min incubation, 250 μl of 500 μM or 1 mM (2×) sodium arsenite (Sigma-Aldrich) diluted in the FluoroBrite media with an appropriate amount of G3I compound or DMSO was added to the sample. Imaging began immediately after, with images at each xy field being taken every 1 min. For heat shock experiments, U2OS G3BP1-GFP-expressing cells were seeded into a 35-mm glass bottom dish (MatTek). Prior to the experiment, 1.5 ml FluoroBrite DMEM media (Gibco) supplemented with 10% FBS and 4 mM L-glutamine was combined with 0.1% DMSO or 50 μM G3I compound. The sample was incubated on the environmentally controlled microscope for 20 min. During this incubation time, 10 xy fields were stored per condition. After the 20-min incubation, acquisition began with each xy position being imaged every 30 s. 2 min into the acquisition, the objective heater was ramped to 43°C and maintained this temperature until ramped back down to 37°C at 32 min into the acquisition. All imaging was acquired on a Yokogawa CSU W1 spinning disk attached to a Nikon Ti2 eclipse with a Photometrics Prime 95B camera using Nikon Elements software (v5.20.00 to v5.21.02). Imaging was performed through a Nikon Plan Apo 60× 1.40 NA oil objective with Immersol 518 F (refractive index 1.518; Zeiss), and Perfect Focus 2.0 (Nikon) was engaged for all captures.
Automated granule detection and measurement were performed using a combination of ilastik and CellProfiler software. Briefly, ND2 multipoint timelapse files were resaved as image sequences in Fiji with the Bio-Formats plugin so that individual frames of the movies could be treated as individual images for analysis. From there, pixel classification in ilastik was used to segment both stress granules and the total cellular area within the field using the G3BP1-GFP channel via machine learning. These segmentations, along with the original G3BP1-GFP image, were input into CellProfiler, where objects were defined using the masks from ilastik.

[2] = test system: stress granule formation in U2OS cells; experiment: 24 h pretreatment followed by arsenite, immunofluorescence; details: then 500 μM NaAsO2 for 30 min
[3] = test system: eIF3η, PABPC1, and FXR1 puncta in U2OS cells stably expressing G3BP1-GFP; experiment: Immunofluorescence of additional stress granule markers after post-addition; details: 250 μM NaAsO2 for 30 min, then 50 μM compound for 5 min
Description: U2OS cells or U2OS cells stably expressing G3BP1-GFP were seeded in four-well Lab-Tek II Chambered Coverglass (1055360; Thermo Fisher Scientific). For preincubation experiments, cells were treated with 50 μM G3I compound for 20 min or 24 h, followed by 250 μM NaAsO2 and 50 μM G3I compound for 30 min. For posttreatment, cells were treated with 250 μM NaAsO2 for 30 min, followed by treatment with 250 μM NaAsO2 and 50 μM G3I compound for 5 min. Cells were then washed twice with PBS and fixed with 4% PFA in PBS for 10 min. Cells were then washed three times with PBS (5 min between each wash), permeabilized with 0.5% Triton X-100 in PBS for 10 min, and washed twice with PBS. Next, cells were blocked for 1 h with 3% BSA in PBS at room temperature, followed by incubation with primary antibodies diluted in 3% BSA overnight at 4°C. Cells were then washed three times with PBS (5 min between each wash) and incubated with secondary antibodies and Hoechst diluted in 3% BSA at room temperature for 1 h. Cells were then washed three times with PBS (5 min between each wash) and imaged. […]

[4] = test system: stress granule formation in WT cell line with endogenous G3BP1; experiment: Stress granule formation in WT cell line with endogenous G3BP1 (immunofluorescence); details: Figure S2H: 50 μM, 250 μM NaAsO2 for 30 min
Description: U2OS cells or U2OS cells stably expressing G3BP1-GFP were seeded in four-well Lab-Tek II Chambered Coverglass (1055360; Thermo Fisher Scientific). For preincubation experiments, cells were treated with 50 μM G3I compound for 20 min or 24 h, followed by 250 μM NaAsO2 and 50 μM G3I compound for 30 min. For posttreatment, cells were treated with 250 μM NaAsO2 for 30 min, followed by treatment with 250 μM NaAsO2 and 50 μM G3I compound for 5 min. Cells were then washed twice with PBS and fixed with 4% PFA in PBS for 10 min. Cells were then washed three times with PBS (5 min between each wash), permeabilized with 0.5% Triton X-100 in PBS for 10 min, and washed twice with PBS. Next, cells were blocked for 1 h with 3% BSA in PBS at room temperature, followed by incubation with primary antibodies diluted in 3% BSA overnight at 4°C. Cells were then washed three times with PBS (5 min between each wash) and incubated with secondary antibodies and Hoechst diluted in 3% BSA at room temperature for 1 h. Cells were then washed three times with PBS (5 min between each wash) and imaged. Primary antibodies were as follows: G3BP1 (Cat# 611127, RRID:AB_398438; BD Biosciences) at 1:200; TDP-43 (Cat# 12892-1-AP, RRID:AB_2200505; Proteintech) at 1:50; eIF3η (Cat# sc-137214, RRID:AB_2277705; Santa Cruz Biotechnology) at 1:100 dilution; PABP (Cat# ab21060, RRID:AB_777008; Abcam) at 1:1,000 dilution; and FXR1 (Cat# ab51970, RRID:AB_880113; Abcam) at 1:100 dilution. Secondary antibodies were as follows: donkey anti-mouse Alexa Fluor 647 (Cat# A-31571, RRID:AB_162542; Thermo Fisher Scientific), donkey anti-rabbit Alexa Fluor 555 (Cat# A-31572 [also A31572], RRID:AB_162543; Thermo Fisher Scientific), and donkey anti-goat Alexa Fluor 555 (Cat# A-21432 [also A21432], RRID:AB_2535853; Thermo Fisher Scientific). Nuclei were stained with Hoechst 33342 (40046; Biotium) at 1:10,000 dilution. All imaging was acquired on a Yokogawa CSU W1 spinning disk attached to a Nikon Ti2 eclipse with a Photometrics Prime 95B camera using Nikon Elements software (versions 5.20.00 to 5.21.02). Imaging was performed through a Nikon Plan Apo 60× 1.40 NA oil objective with Immersol 518 F (refractive index 1.518; Zeiss), and Perfect Focus 2.0 (Nikon) was engaged for all captures.

| Structure (SMILES) | reduction of total stress granule area ([1]; 5 μM) | reduction of total stress granule area ([1]; 20 μM) | reduction of stress granule formation compared with inactive enantiomer ([1]; 50 μM) | reduction of total stress granule area ([1]; 50 μM) | stress granule formation after 24 h pretreatment ([2]; 20 μM) | stress granule formation after 24 h pretreatment ([2]; 50 μM) | eIF3η, PABPC1, and FXR1 puncta [3] | stress granule formation by endogenous G3BP signal [4] | stress granule formation [1] | stress granule formation after 24 h pretreatment ([2]; indicated doses) | stress granule formation after 24 h pretreatment ([2]; 5 μM) |
| --- | --- | --- | --- | --- | --- | --- | --- | --- | --- | --- | --- |
| CC(NC(=O)C(NC(=O)C(NC(=O)CCC(C)(C)C)C(C)(C)O)C(C)c1ccccc1)C(=O)N1CCCC1c1ccccc1 (centres unmarked) [G3Ib] | ~50% | ~85% | ~94% | ~93% | nearly completely inhibited | nearly completely inhibited | reduced eIF3η, PABPC1, and FXR1 puncta | effectively blocked stress granule formation |  |  |  |
| CC(NC(=O)C(NC(=O)C(NC(=O)CCC(C)(C)C)C(C)(C)O)C(C)c1ccccc1)C(=O)N1CCCC1c1ccccc1 (centres unmarked) [G3Ib′] |  |  |  |  |  |  |  | not | not significantly altered | no discernable effects |  |
| COCCC(NC(=O)C(C)NC(=O)C(NC(=O)C(NC(=O)C(F)CC(C)(C)C)C(C)(C)O)C(C)c1ccccc1)C(=O)N(C)Cc1ccccc1 (centres unmarked) [G3Ia′] |  |  |  |  |  |  |  | not | not significantly altered | no discernable effects |  |
| COCCC(NC(=O)C(C)NC(=O)C(NC(=O)C(NC(=O)C(F)CC(C)(C)C)C(C)(C)O)C(C)c1ccccc1)C(=O)N(C)Cc1ccccc1 (centres unmarked) [G3Ia] | ~36% | ~59% | ~86% | ~80% | no substantial impairment | inhibited stress granule formation | reduced eIF3η, PABPC1, and FXR1 puncta | effectively blocked stress granule formation |  |  | no substantial impairment |
